Ends that are not written are not given here.
Assays:
[1] = Plasma kinetics of 125I-rAM(1-50) after single intravenous injection in rats; format: in vivo, rat; conditions: given 5 min before the 125I-rAM(1-50) bolus
Procedure: All experimental procedures were performed in accordance with the regulations and ethical guidelines from Canadian Council for the Care of Laboratory Animals, and received approval by the Animal Ethics and Research Committee of the Montreal Heart Institute. Male Sprague-Dawley rats (Charles River), weighing between 400-450 g, were anaesthetized by an initial intramuscular dose of xylazine (10 mg/kg of body weight) and ketamine (50 mg/kg of body weight), followed by an intra-peritoneal injection of heparin (2000 units; Sigma). Catheters were inserted into the right carotid artery and jugular vein. Heart rate and systemic blood pressure were monitored continuously. […] Venous and arterial blood samples (3 ml) were collected and centrifuged (1875 g, 15 min, 4° C.) and the plasma saved for subsequent measurement of irAM (immunoreactive AM). A similar amount of saline was infused into the animals to prevent hypovolaemia.
The animals were then killed and the lungs, liver, kidneys (en bloc with the adrenal glands) and heart were removed and gravity drained. […] Results are expressed as a percentage of total radioactivity injected. […]
Multiple group comparisons were performed by factorial ANOVA, followed, when a significant interaction was found, by the Bonferroni/Dunn t test. […] In the canine experiments, the effect of drugs on AM extraction was analyzed by two-tailed paired Student's t tests. […]

[2] = Biodistribution / organ retention of 125I-rAM(1-50) in rats, with and without antagonists; format: in vivo, rat
Procedure: The animals were then killed and the lungs, liver, kidneys (en bloc with the adrenal glands) and heart were removed and gravity drained. […] Results are expressed as a percentage of total radioactivity injected.
The drugs were given by either intraarterial (n=10 in each group) or intravenous (n=10 in each group) injection 5 min before the ^125I-rAM(1-50) bolus. Plasma samples and tissues were treated as described above.

[3] = target: AM1 (CRLR+RAMP2) receptor, lungs of dogs; assay: Displacement of labelled human adrenomedullin in the lungs of dogs; format: binding, dog; conditions: displacement of labelled hAM
[4] = In vivo single-pass pulmonary extraction of 125I-rAM(1-50) in dogs (indicator-dilution); design: species or system dog; conditions: for single-pass pulmonary extraction of 125I-rAM(1-50) after administration of the substance: dogs, intravenous bolus of 100 nmol, 5 min before
Procedure: Dogs were anaesthetized and prepared as described in detail in reference, which is hereby incorporated by reference. A catheter was inserted into the carotid artery and positioned just above the aortic valve. This catheter was connected to a peristaltic pump for automated blood withdrawal. Another catheter was placed into the jugular vein and positioned in the right ventricular outflow tract to allow bolus injection of the study tracers. A bolus was prepared by adding 3.3 μCi of 125I-rAM(1-50) (2.9 pmol) to 3 ml of Evans-Blue-dye labelled albumin and 0.9% saline to give a final volume of 6 ml. The mixture was separated into three equal parts for the two successive experiments in each animal and to realize dilution-curve standards. A baseline single-bolus indicator-dilution experiment was performed.
The collected samples were processed and indicator-dilution curves constructed and analyzed as described in previously cited reference 13. Cardiac output and mean tracer AM extraction during the pulmonary transit time were computed from the curves. Mean tracer extraction corresponded to the difference between the areas of the outflow curve of the vascular reference (albumin) and that of the extracted tracer (AM). Recirculation of the tracers apparent in the terminal portion of the curves was removed by linear extrapolation of the semi-logarithmic down slopes.

Chain of AM1 (CRLR+RAMP2) receptor, lungs of dogs (A0A8I3NWR4 25-462): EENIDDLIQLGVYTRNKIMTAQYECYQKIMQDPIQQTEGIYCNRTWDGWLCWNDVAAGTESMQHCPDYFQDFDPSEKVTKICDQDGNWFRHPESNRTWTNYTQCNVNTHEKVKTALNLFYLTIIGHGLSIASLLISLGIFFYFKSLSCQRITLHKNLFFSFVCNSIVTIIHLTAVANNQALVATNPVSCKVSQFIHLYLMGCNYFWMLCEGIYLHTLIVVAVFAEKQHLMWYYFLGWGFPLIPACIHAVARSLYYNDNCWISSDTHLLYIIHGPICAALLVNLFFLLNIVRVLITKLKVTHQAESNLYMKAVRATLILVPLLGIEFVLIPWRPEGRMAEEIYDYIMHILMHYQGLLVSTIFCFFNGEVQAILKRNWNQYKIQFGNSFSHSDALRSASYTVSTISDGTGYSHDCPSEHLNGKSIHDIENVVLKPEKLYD

| Substance | effect on plasma kinetics of radiolabelled rAM(1-50) [1] | effect on activity of 125I-rAM(1-50) retained in kidneys ([2]; given before the tracer) | effect on biodistribution of 125I-rAM(1-50) ([2]; given before the tracer) | effect on pulmonary first-pass retention of 125I-rAM(1-50) ([2]; prior administration) | IC50 [3] | single-pass pulmonary extraction of 125I-rAM(1-50) after administration of the substance [4] | effect on amount of 125I-rAM(1-50) retained by the liver, kidneys and heart ([2]; given before the tracer) | effect on lung activity of 125I-rAM(1-50) ([2]; given before the tracer) | mean extraction of 125I-rAM(1-50) after injection of the substance ([4]; same dog, second experiment) |
| --- | --- | --- | --- | --- | --- | --- | --- | --- | --- |
| hAM(22-52): C-terminal human AM fragment that blocks the specific AM receptor | did not modify plasma kinetics | elevated the retained activity | did not significantly modify this distribution | not affected | 810 nM | 31.4±3.3% | – | – | – |
| unlabelled rAM(1-50): unlabelled rat adrenomedullin (1-50), American Peptide (YRQSMNQGSRSTGCRFGTCTMQKLAHQIYQFTDKDKDGMAPRNKISPQGY; ends and bridges not checked; cysteine pairing not given here) | did not modify plasma kinetics | – | – | – | – | 21.9±2.4% | significantly increased | important reduction in lung activity | 12% |
